Assay results as given in patent US12673039B2, “Methods of inducing autophagy using coumarin derivatives and related compounds” (Buck Institute for Research on Aging, priority 2019, dated 2026).

Tests used:
SH-SY5Y cells = experiment: Immunoblot of TFEB, cathepsin-D and SHP-1 in SH-SY5Y cells; format: cell-based, human; conditions: 24 hours
Procedure: FIG. 23, panels A-H: FXR modulation enhances HLH-30 expression in human neuronal SH-SY5Y cells. Panel A) Effects of AIC106 on human FXR activity was determined in a mammalian one-hybrid based kit assay by quantifying changes in the luciferase activity of FXR ligand (GW4064, GW) induced treatment. [N=3 independent experiments (mean±SD). ****p<0.0001, by one-way ANOVA with Tukey's multiple comparisons test]. Panel B) Protein expression of TFEB, cathepsin-D (CAT-D) and small heterodimer partner-1 (SHP-1) was determined by immunoblot in neuronal SH-SY5Y cells post-24 hours of treatment with AIC106 and DMSO-control. Panel C) AIC106 enhances autophagic flux in neuronal SH-SY5Y cells. Autophagic flux in DMSO-control and AIC106 treated neuronal cells was determined by quantifying levels of autophagosome specific LC3-II protein both in presence and absence of autophagy inhibitor bafliomycin A1 (Baf A, 10 nM). Panel D) Relative fold change in the band intensity of LC3-II protein, normalized to loading control actin. Values are relative to DMSO-control. [N=3 independent experiments (mean±SD). *p<0.05 and ****p<0.0001, by one-way ANOVA with Tukey's multiple comparisons test]. Panel E) Effects of AIC106 treatment for 72 hours on basal TAU and phosphorylated-TAU in differentiated human neuronal SH-SHY5Y and heterozygous TSC1(+/−) mutant SH-SY5Y neuronal cells were quantitated by immunoblotting following total protein extraction. Relative fold change in the band intensity compared to SH-SY5Y control treatment for (panel F) total TAU and (panel G) phosphorylated-TAU, normalized to loading control GAPDH. [N=3 independent experiments (mean±SD). *p<0.05 and **p<0.01, by one-way ANOVA with Sidak's multiple comparisons test]. Panel H) AIC106 treatment improves viability and health of differentiated SH-SY5Y-TSC1(+/−) neuronal cells. Images were taken post-96 hours after treatment of differentiated neuronal cells with AIC106.
(§1) FIG. 30, panels A-B: FXR modulation enhances HLH-30 expression in human neuronal SH-SY5Y cell. Panel A) TFEB expression in SH-SY5Y cells was determined by immunoblot against TFEB in protein lysates collected after 24 hours of treatment with FXR agonist GW4064 and DMSO control. Panel B) Phosphorylated-TAU levels in SH-SY5Y-P301L-TAU cells was determined by immunoblot against (Ser202, Thr205) in protein lysates collected after 24 hours of treatment with known FXR antagonist Z-gugglsterone (z-GG), DY268 and DMSO control.

SH-SY5Y-P301L-TAU cells = experiment: Phosphorylated-TAU immunoblot in SH-SY5Y-P301L-TAU cells; format: cell-based, human; conditions: SH-SY5Y cells expressing mutant P301L-TAU, 24 hours
Procedure: as §1

| SMILES | TFEB protein expression (SH-SY5Y cells) | phosphorylated-TAU expression (SH-SY5Y-P301L-TAU cells) |
| --- | --- | --- |
| CC(C)c1onc(-c2c(Cl)cccc2Cl)c1COc1ccc(/C=C/c2cccc(C(=O)O)c2)c(Cl)c1 [GW4064, reference compound] | reduced TFEB expression | – |
| C/C=C1\C(=O)C[C@H]2[C@@H]3CCC4=CC(=O)CC[C@]4(C)[C@H]3CC[C@]12C [Z-guggulsterone] | – | reduced expression of phosphorylated-TAU |
| COc1cccc(Cn2cc(C(=O)Nc3ccc(C)c(S(=O)(=O)N4CCOCC4)c3)c(-c3ccc(C)cc3)n2)c1 [DY268] | – | reduced expression of phosphorylated-TAU |
